Test results as given in patent publication US7745493B2, “Methods of treating tardive dyskinesia and other movement disorders” (priority 1998, dated 2010).

Experiments:
[1] = test system: person one with long-standing TD; assay: Case Report 2: clinical observation of TD; type: in vivo, human; conditions: Case 2; acamprosate 666 mg three times daily added to memantine; magnesium oxide 250 mg three times a day added to acamprosate
From the text: person one had long-standing TD following decades of treatment with the neuroleptic drug perphenazine. Their involuntary movements comprised bilateral chorea of the upper extremities, plus writhing of the tongue and tongue-biting. Both of the latter movements led to a very sore tongue. In addition, the patient experienced impairment of their short-term memory, which was attributed primarily to cerebrovascular disease.
They also continued to have a sore tongue. […] In addition to memantine, the patient regularly took antiepileptic drugs (gabapentin and lamotrigine), antiplatelet agents (aspirin and ticlopidine), as well as medications for hypertension, glaucoma and gastrointestinal symptoms (isosorbide mononitrate, metoprolol, timolol eye drops and olsalazine).
The patient was placed on a treatment regime that included administration of 666 mg of acamprosate, three times daily. In this case, acamprosate was added to the patient's regimen, which continued to include memantine. […] Despite past evidence from formal testing that the patient had impaired short-term memory, they performed normally on a two-sentence memory task, which involved testing the patient's recall ability using two sentences containing 13 separate details. On the two-sentence memory task, within three attempts the patient was able to recall 9 details and, using a multiple choice format, was able to recall a total of 11 details. Recall of 9 details on the third attempt would be normal for a middle-aged adult, let alone one […].
After a full year on memantine and acamprosate, the memantine was discontinued, with little change in the patient's symptoms.
Magnesium oxide, 250 mg three times a day, was added, each dose being taken together with the acamprosate. […] The effect was definite: movements worsened when magnesium oxide was stopped and improved when it was restarted. After a month on magnesium, the dosage of acamprosate was increased to 666 mg four times a day, with 250 mg of magnesium oxide given together with each dose. […] The only residual sign of TD was a mild degree of involuntary movement of the hands.

[2] = test system: patients with Meige syndrome; conditions: cited from earlier work
[3] = test system: person two with long-standing TD; assay: Case Report 1: clinical observation of TD with blepharospasm; type: in vivo, human; conditions: Case 1; for effect on involuntary movements of TD: clinical observation, acamprosate 333 mg four times a day
Procedure: Palliative treatment with alprazolam (an anxiolytic and GABA agonist via modulation; dosage 0.25 mg four times a day) and trihexyphenidyl (an anticholinergic antiparkinson drug that inhibits dopamine re-uptake at synapses; dosage 2 mg twice a day) was prescribed by another physician.
Initially, their other medications were maintained unchanged.
Nimodipine was discontinued, and the patient was begun on memantine at a dosage of 10 mg twice a day.
For the following 10 days they added 250 mg three times a day of chelated magnesium.

[4] = test system: person two with Parkinson's disease and peak-dose dyskinesia; assay: Case Report 3: peak-dose dyskinesia of treated Parkinson's disease; type: in vivo, human; conditions: Case 3; for effect on peak-dose dyskinesia: added to antiparkinson regime, memantine 10 mg three times a day, acamprosate 666 mg three times, then 333 mg four times a day, baclofen 30 and 60 mg daily, magnesium 300 mg three times a day
Procedure: The patient's Parkinson's disease was treated using levodopa/carbidopa and bromocriptine.
Prior to beginning treatment with acamprosate, the patient was on an antiparkinson treatment regime that consisted of 1 mg of pergolide three times a day, 5 mg of selegiline twice a day, and a combination of levodopa/carbidopa consisting of 550-600 mg of levodopa and 125-150 mg of carbidopa administered in divided doses.
The patient began acamprosate as an addition to the antiparkinson regime described above. Initially, the patient received 666 mg of acamprosate administered three times a day. Two weeks later the regime was adjusted such that the patient received 333 mg of acamprosate four times a day, taking one 333 mg pill with each daytime dose of 100 mg levodopa and 25 mg carbidopa. The patient's bedtime does of controlled-release levodopa-carbidopa (200 mg of levodopa and 50 mg of carbidopa) was continued, but were given without acamprosate. […] To confirm that the patient's improvement was due to the administration of acamprosate, the patient was taken off the acamprosate. […] During the period off acamprosate, an attempt was made to replace acamprosate with baclofen (a GABA-receptor agonist) at a total daily dose of 30 mg, and then with baclofen at a total daily dose of 60 mg.
Several months later, magnesium (300 mg elemental magnesium, as a mixed chelate), was added to the regimen. It was taken three times a day, together with a one of the patient's regular doses of levodopa/carbidopa. […] To establish whether the improvement was due to magnesium, the magnesium was stopped after several weeks.

[5] = test system: patients with tic-related symptoms; conditions: in vivo; cited from earlier work

Row | Compound | effect on involuntary movements of TD ([3]; memantine 10 mg twice a day) | effect on peak-dose dyskinesia [4] | other results
1 | [O]=[Mg] [Magnesium oxide] |  |  | effect on involuntary movements of TD [1]: improved further
2 | COc1cc2c(cc1OC)C1CC(=O)C(CC(C)C)CN1CC2 (stereo not shown) [Tetrabenazine] |  |  | patients with involuntary movements alleviated [2]: 4 of 6; undesirable side effects [2]: drowsiness, drooling and Parkinsonism
3 | OC(CCN1CCCCC1)(c1ccccc1)C1CCCCC1 (stereo not shown) [Trihexyphenidyl, trihexyphenidyl] | discontinued without a change in their involuntary movements |  | 
4 | Cc1nnc2n1-c1ccc(Cl)cc1C(c1ccccc1)=NC2 [alprazolam] | no detectable effect |  | 
5 | NCC(CC(=O)O)c1ccc(Cl)cc1 (stereo not shown) [baclofen] |  | no beneficial effect | adverse effects ([4]; total daily dose 30 mg, then 60 mg): sedation and nausea
6 | CC(C[N+](C)(C)C)OC(N)=O (stereo not shown) [bethanecol] |  | did not appear to affect | 
7 | O=C1CC2(CCCC2)CC(=O)N1CCCCN1CCN(c2ncccn2)CC1 [buspirone] | either produced little benefit or were not tolerated |  | 
8 | NC(=O)N1c2ccccc2C=Cc2ccccc21 [carbamazepine] |  | did not appear to affect | 
9 | Clc1cccc(Cl)c1N=C1NCCN1 [clonidine] |  |  | patients showing clinically significant improvement of tic-related symptoms [5]: < 50%; side effects that limit use [5]: hypotension or sedation
10 | COCCOC(=O)C1=C(C)NC(C)=C(C(=O)OC(C)C)C1c1cccc([N+](=O)[O-])c1 (stereo not shown) [nimodipine] |  |  | reduction of involuntary movements ([3]; 30 mg four times a day): about 50%; time able to read text or music at a time ([3]; 30 mg four times a day): no more than 30 minutes; adverse effects ([3]; nimodipine 30 mg four times a day, memantine 10 mg twice a day): dizziness, lightheadedness, and palpitations
11 | CN[C@H]1CC[C@@H](c2ccc(Cl)c(Cl)c2)c2ccccc21 [sertraline] | either produced little benefit or were not tolerated | did not appear to affect | 
12 | medroxyprogesterone |  | did not appear to affect | 
13 | vitamin E | either produced little benefit or were not tolerated |  | 
